PubChem BioAssay (NCI)
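Grown in 96-well plates, cells were treated for 48 hours with each compound at five concentrations. Insufficient inhibition: endpoint recorded as highest concentration tested. TGI marks complete inhibition of growth.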

Assays:
Experiment in all cases: NCI-60 cell line screen, 48 h
[1] = test system: 786-0 renal
[2] = test system: A498 renal
[3] = test system: A549 NSCLC
[4] = test system: BT-549 breast
[5] = test system: CAKI-1 renal
[6] = test system: CCRF-CEM leukemia
[7] = test system: COLO 205 colon
[8] = test system: DU-145 prostate
[9] = test system: EKVX NSCLC
[10] = test system: HCC-2998 colon
[11] = test system: HCT-116 colon
[12] = test system: HCT-15 colon
[13] = test system: HL-60(TB) leukemia
[14] = test system: HS 578T breast
[15] = test system: HT29 colon
[16] = test system: IGROV1 ovarian
[17] = test system: K-562 leukemia
[18] = test system: KM12 colon
[19] = test system: LOX IMVI melanoma
[20] = test system: M14 melanoma
[21] = test system: MALME-3M melanoma
[22] = test system: MCF7 breast
[23] = test system: MDA-MB-231 breast
[24] = test system: MDA-MB-435
[25] = test system: MDA-N
[26] = test system: MOLT-4 leukemia
[27] = test system: NCI-H226 lung
[28] = test system: NCI-H23 lung
[29] = test system: NCI-H460 lung
[30] = test system: NCI-H522 lung
[31] = test system: NCI/ADR-RES ovarian
[32] = test system: OVCAR-3 ovarian
[33] = test system: OVCAR-4 ovarian
[34] = test system: OVCAR-5 ovarian
[35] = test system: OVCAR-8 ovarian
[36] = test system: PC-3 prostate
[37] = test system: RPMI-8226 leukemia
[38] = test system: RXF 393 renal
[39] = test system: SF-268 CNS
[40] = test system: SF-539 CNS
[41] = test system: SK-MEL-2 melanoma
[42] = test system: SK-MEL-28 melanoma
[43] = test system: SK-MEL-5 melanoma
[44] = test system: SK-OV-3 ovarian
[45] = test system: SN12C renal
[46] = test system: SNB-19 CNS
[47] = test system: SNB-75 CNS
[48] = test system: SR leukemia
[49] = test system: SW-620 colon
[50] = test system: T-47D breast
[51] = test system: TK-10 renal
[52] = test system: U251 CNS
[53] = test system: UACC-257 melanoma
[54] = test system: UACC-62 melanoma
[55] = test system: UO-31 renal
[56] = test system: ACHN renal
[57] = test system: HOP-62 NSCLC
[58] = test system: HOP-92 NSCLC
[59] = test system: SF-295 CNS

Measured: TGI

Cc1ccc(-n2c(O)c3c(N)n[nH]c3c(C#N)c2=O)cc1
> 100 µM: [1] | [2] | [3] | [4] | [5] | [6] | [7] | [8] | [9] | [10] | [11] | [12] | [13] | [14] | [15] | [16] | [17] | [18] | [19] | [20] | [21] | [22] | [23] | [24] | [25] | [26] | [27] | [28] | [29] | [30] | [31] | [32] | [33] | [34] | [35] | [36] | [37] | [38] | [39] | [40] | [41] | [42] | [43] | [44] | [45] | [46] | [47] | [48] | [49] | [50] | [51] | [52] | [53] | [54] | [55]

c1cc(C[S+]2CCCC2)ccc1C[S+]1CCCC1
> 100 µM: [1] | [2] | [3] | [56] | [4] | [5] | [6] | [7] | [8] | [9] | [10] | [11] | [12] | [13] | [57] | [58] | [14] | [15] | [16] | [17] | [18] | [19] | [20] | [21] | [22] | [23] | [24] | [25] | [26] | [27] | [28] | [29] | [30] | [31] | [32] | [33] | [34] | [35] | [36] | [37] | [38] | [39] | [59] | [40] | [42] | [43] | [44] | [45] | [46] | [47] | [48] | [49] | [50] | [51] | [52] | [53] | [54] | [55]
